Measured values from patent US20040142899A1, “Compositions and methods for enhanced biostability and altered biodistribution of oligonucleotides in mammals” (ISIS Pharmaceuticals, Inc., priority 1990, published 2004).

What was measured:
[1] = Nuclease stability in HeLa cytoplasmic/nuclear extracts; format: in vitro ADME; details: cell extract diluted 1.4 times; oligonucleotide 20 μM
Experimental: The nuclease stability of Oligomer 51 and the conjugate were tested against Oligomer 50 in HeLa cytoplasmic/nuclear extracts. The cell extract was diluted 1.4 times. The final concentration of oligonucleotide was 20 μM. The half lives of the oligonucleotides were as follows: Oligomer 50, 1.0 hrs.; Oligomer 51, 3.5 hrs.; and Conjugate 1, 3.6 hrs.

[2] = tested on: ICAM-1 protein; details: LPS-induced livers, HRP-conjugated secondary antibodies
[3] = tested on: mouse ICAM-1 mRNA; test: ICAM-1 mRNA levels in LPS-treated mice (Northern analysis); format: in vivo; details: liver; 30 mg/kg i.v. 24 and 2 hours prior to LPS
Experimental: Mice were treated with oligonucleotides and examined as follows. […] Then, to induce ICAM-1 expression, bacterial lipopolysaccharide (LPS) was injected into the mice. After 2 hours, the mice were sacrificed, and particular organs, or specific portion thereof, were removed for further study. RNA was prepared from isolated, homogenized tissues essentially according to the guanidinium/CsCl purification method of Chirgwin et al. (Biochemistry, […], 18, 5294), electrophoresed and transferred to nylon membranes for hybridization studies (Northern analysis) according to methods well known in the art. In order to detect mouse ICAM-1 mRNA, a radiolabelled probe was prepared by random oligonucleotide-primed synthesis using a mouse ICAM-1 clone as a template. The blots were stripped and reprobed with a ^32P-labeled glyceraldehyde 3-phosphate dehydrogenase (G3PDH) probe (Clontech Laboratories, Inc., Palo Alto, Calif.) in order to confirm equal loading of RNA and to allow the levels of ICAM-1 transcripts to be normalized with regard to the G3PDH signals. Hybridizing bands were visualized by exposure to X-OMAT AR film and quantitated using a PHOSPHORIMAGER™ essentially according to the manufacturer's instructions (Molecular Dynamics, Sunnyvale, Calif.).

[4] = tested on: complementary RNA; test: Melting analysis (Tm) of 5-LO antisense sequence oligomers against complementary RNA; format: binding; details: 4 μM each strand, 100 mM NaCl, 10 mM Phosphate, 0.1 mM EDTA, pH 7.0
Experimental: (§1) The relative ability of oligonucleotides to bind to their complementary strand is compared by determining the melting temperature of the hybridization complex of the oligonucleotide and its complementary strand. The melting temperature (Tm), a characteristic physical property of double helices, denotes the temperature in degrees centigrade at which 50% helical versus coil (un-hybridized) forms are present. Tm is measured by using the UV spectrum to determine the formation and breakdown (melting) of hybridization. Base stacking, which occurs during hybridization, is accompanied by a reduction in UV absorption (hypochromicity). Consequently, […]. The higher the Tm, the greater the strength of the binding of the strands. Non-Watson-Crick base pairing has a strong destabilizing effect on the Tm. Consequently, absolute fidelity of base pairing is necessary to have optimal binding of an antisense oligonucleotide to its targeted RNA.
(§2) The test oligonucleotides (either the phosphodiester, phosphorothioate, cholic acid conjugated phosphodiester, cholic acid conjugated phosphorothioate or 5′-aminolink intermediate phosphodiester or phosphorothioate oligonucleotides of the invention or otherwise) and either the complementary DNA or RNA oligonucleotides were incubated at a standard concentration of 4 μM for each oligonucleotide in buffer (100 mM NaCl, 10 mM Na-phosphate, pH 7.0, 0.1 mM EDTA). Samples were heated to 90 degrees C. and the initial absorbance taken using a Guilford Response II spectro-photometer (Corning, Inc., Corning, N.Y.). Samples were then slowly cooled to 15° C. and then the change in absorbance at 260 nm was monitored during the heat denaturation procedure. The temperature was elevated 1 degree/absorbance reading and the denaturation profile analyzed by taking the 1st derivative of the melting curve. Data was also analyzed using a two-state linear regression analysis to determine the Tm's. The results of these tests are shown in Table 3 as are the HPLC retention times of certain of the test compounds.

[5] = tested on: complementary DNA; test: Melting analysis (Tm) of 5-LO antisense sequence oligomers against complementary DNA; format: binding; details: 4 μM each strand, 100 mM NaCl, 10 mM Phosphate, 0.1 mM EDTA, pH 7.0
Experimental: as §1, §2

[6] = tested on: P-glycoprotein; test: P-glycoprotein expression by Western blotting in MDR 3T3 cells; format: cell-based, human; details: maximum only after 72 hours exposure
Experimental: Transfected MDR NIH 3T3 cells were grown and treated with oligonucleotides as described in Example (9)(B). In order to measure P-glycoprotein expression by Western blotting, cells were seeded in 60 mm dishes at 1.2×10^6 per dish and incubated for 24 hours in serum containing medium. The cells were treated with the oligomers for various times in serum free medium as described above. Cells were then extracted in lysis buffer (20 mM Tris, pH 7.5, 2 mM EDTA, 500 mM EGTA, 2 mM PMSF, 1 mM DTT, aprotonin (10 ug/ml), 0.5% Triton-X) and sonicated briefly. The lysate was spun in a microfuge tube for 20 minutes at 4° C. and the resulting supernatant was checked for protein content. Equal amounts of protein (usually 20 ug) were mixed with SDS sample buffer and boiled. Protein samples were separated by 8% SDS PAGE and the resolved proteins were electrophoretically transferred onto polyvinyllidene fluoride membranes (Millipore, Bedford, Mass.). The membranes were blocked (with 3% BSA, 2% non fat dry milk in PBS) and then treated with 2 ug/ml C219 anti-P-glycoprotein antibody (Signet, Dedham, Mass.). After washing three times with 0.1% Tween 20, the membranes were incubated with rabbit anti-mouse antibody (Cappel, Durham, N.C.). Immunoreactive proteins were visualized either by ECL (Enhanced Chemiluminescence, Amersham, Arlington Heights, Ill.) or with ^125I secondary antibodies.

[7] = tested on: MDR1 mRNA; test: MDR1 mRNA expression by Northern blotting in MDR 3T3 cells; format: cell-based, human; details: for MDR1 mRNA Level (arbitrary units) / % Control (MDR1 mRNA): oligonucleotide 1 μm, 24 hours, with Lipofectin; for MDR1 mRNA Level (arbitrary units): serum free medium; for % Control (MDR1 mRNA): control = untreated cells
Experimental: NIH 3T3 cells transfected with a plasmid containing the human MDR1 gene (pSK1 MDR) have been previously described (Kane et al., Gene, 1989, 84, 439). These cells have proven to be useful models for the study of multi-drug resistance phenomena. Cells were grown in DMEM media containing 10% fetal bovine serum (FBS) and 60 ng/ml colchicine in an atmosphere of 95% air, 5% CO2.
Cells were grown in […] flasks.
To measure MDR1 mRNA expression by Northern blotting, total cellular RNA was isolated by lysis in 4M guanidium isothiocyanate followed by a cesium chloride gradient, and the RNA was resolved on 1.2% agarose gels containing 1.2% formaldehyde and transferred to nitrocellulose membranes (Dean et al., J. Biol. Chem., 1994, 269, 16416). The blots were hybridized with a ^32P radiolabeled human MDR1 cDNA probe. The MDR1 cDNA probe was isolated by performing a polymerase chain reaction on the pSK1 MDR plasmid, as described previously (Alahari et al., Nucl. Acids Res., 1993, 21, 4079). The following oligonucleotide primers were used for PCR: […]
The resulting fragment was checked on an agarose gel and was radiolabeled with ^32P-dCTP using a commercially available random primer labeling kit (Amersham, Arlington Heights, Ill.) according to the manufacturer's instructions. The filters were hybridized overnight in hybridization buffer (25 mM KPO4, pH 7.4; 5×SSC; 5×Denhardt's solution, 100 ug/ml Salmon sperm DNA and 50% formamide) (Alahari et al., Nucl. Acids Res., 1993, 21, 4079). This was followed by two washes with 1×SSC, 0.1% SDS and two washes with 0.25×SSC, 0.1% SDS. Hybridizing bands were visualized by exposure to X-OMAT AR film and quantitated using a PhosphorImager™ (Molecular Dynamics, Sunnyvale, Calif.). To confirm equal loading of RNA, the blots were stripped and reprobed with a ^32P-labeled beta-actin probe (Clontech, Palo Alto, Calif).
In initial experiments, the MDR 3T3 cells were exposed to 1.0 μm concentrations of several different antisense oligonucleotides, or control oligonucleotides, in the presence of 20 ug/ml LIPOFECTIN® for 24 hours. […] NIH 3T3 cells transfected with pSK1 MDR plasmid were grown to 90% confluence and treated with oligonucleotide (1 μm) for 24 hours in the presence of Lipofectin® in serum free medium. Total RNA was isolated and fractionated on agarose formaldehyde gels and blotted onto nitrocellulose membranes. These membranes were probed with a ^32P radiolabeled 1.0 kb MDR1 cDNA, and then stripped and reprobed with a ^32P radiolabeled beta-actin cDNA probe to confirm equal loading of RNA, allowing the levels of MDR1 transcripts to be normalized with regard to the beta-actin bands. Transcript levels were quantitated using a PHOSPHORIMAGER™ (Molecular Dynamics, Sunnyvale, Calif.); the values are expressed in arbitrary units (the beta-actin transcripts were essentially constant).

5′-GCC-TTT-CGC-GAC-CCA-ACA-CU [Oligomer 50, reference compound]
half life [1]: 1.0 h

5′-GCC-TTT-CGC-GAC-CCA-ACA-CU* [Oligomer 51]
half life [1]: 3.5 h

5′-GCG-TTG-CTC-TTC-TTC-TTG-CG [ISIS 13293, reference compound]
ICAM-1 staining of liver sections [2]: appear quite dark | reduction of hepatic ICAM-1 mRNA relative to LPS without oligonucleotide [3]: no apparent effect

5′-TCC-AGG-TGT-CCG-CAT-C-3′ (antisense TCCAGGTGTCCGCATC; 5' cholic acid conjugate, chemistry not fully specified) [Oligomer 36, 5′-terminus cholic acid conjugate, phosphodiester]
Tm RNA [4]: 62.4 degrees centigrade | Tm DNA [5]: 63.4 degrees centigrade

5′-TCC-AGG-TGT-CCG-CAT-C-3′ (antisense TCCAGGTGTCCGCATC; phosphodiester, phosphorothioate or 5'-aminolink variants, which one is not given here, further chemistry not given here) [Oligomer 32, parent 5-LO antisense compound, normal phosphodiester linkages, reference compound]
Tm RNA ([4]; listed as 32): 62.0 degrees centigrade | Tm DNA ([5]; listed as 32): 62.6 degrees centigrade

5′-TCC-AGG-TGT-CCG-CAT-C-3′ (antisense TCCAGGTGTCCGCATC; phosphodiester, phosphorothioate or 5'-aminolink variants, which one is not given here, further chemistry not given here) [Oligomer 33, reference compound]
Tm RNA ([4]; listed as 33): 54.9 degrees centigrade | Tm DNA ([5]; listed as 33): 55.4 degrees centigrade

5′-TCC-AGG-TGT-CCG-CAT-C-3′ (antisense TCCAGGTGTCCGCATC; phosphodiester, phosphorothioate or 5'-aminolink variants, which one is not given here, further chemistry not given here) [Oligomer 37]
Tm RNA ([4]; listed as 37): 55.8 degrees centigrade | Tm DNA ([5]; listed as 37): 56.3 degrees centigrade

CGG-TCC-CCT-TCA-AGA-TCC-AT (CGGTCCCCTTCAAGATCCAT; all phosphorothioate, sugars by position and methylation of C not given here) [ISIS 10440]
reduction of P-glycoprotein (Western assays) [6]: about 50%

CTC-CCG-CAC-ATC-TCC-GCG-CC (CTCCCGCACATCTCCGCGCC; all phosphorothioate, sugars by position and methylation of C not given here) [ISIS 10222, reference compound]
MDR1 mRNA Level (arbitrary units) [7]: 406,522 arbitrary units | % Control (MDR1 mRNA) [7]: 86%

GAG-CCG-CTA-CTC-GAA-TGA-GC (GAGCCGCTACTCGAATGAGC; all phosphorothioate, sugars by position and methylation of C not given here) [ISIS 5990]
MDR1 mRNA Level (arbitrary units) [7]: 443,478 arbitrary units | % Control (MDR1 mRNA) [7]: 94%

GTT-CAC-TGG-CGC-TTT-GTT-CC (GTTCACTGGCGCTTTGTTCC; all phosphorothioate, sugars by position and methylation of C not given here) [ISIS 5998]
effect on MDR1 mRNA expression ([7]; parent phosphorothioate, Example 9(B)): unpromising effect on MDR1 mRNA expression
